Assay results: publication PMC11320581 (ACS Infectious Diseases, 2024)

Columns and labels:
E. coli gyrase = E. coli gyrase (Escherichia coli, UniProt P0AES4+P0AES6); type: biochemical
B. anthracis gyrase = type: biochemical, Bacillus anthracis
M. tuberculosis gyrase = details: cited from earlier work

Sequence of E. coli gyrase (P0AES4 whole entry, one chain of several): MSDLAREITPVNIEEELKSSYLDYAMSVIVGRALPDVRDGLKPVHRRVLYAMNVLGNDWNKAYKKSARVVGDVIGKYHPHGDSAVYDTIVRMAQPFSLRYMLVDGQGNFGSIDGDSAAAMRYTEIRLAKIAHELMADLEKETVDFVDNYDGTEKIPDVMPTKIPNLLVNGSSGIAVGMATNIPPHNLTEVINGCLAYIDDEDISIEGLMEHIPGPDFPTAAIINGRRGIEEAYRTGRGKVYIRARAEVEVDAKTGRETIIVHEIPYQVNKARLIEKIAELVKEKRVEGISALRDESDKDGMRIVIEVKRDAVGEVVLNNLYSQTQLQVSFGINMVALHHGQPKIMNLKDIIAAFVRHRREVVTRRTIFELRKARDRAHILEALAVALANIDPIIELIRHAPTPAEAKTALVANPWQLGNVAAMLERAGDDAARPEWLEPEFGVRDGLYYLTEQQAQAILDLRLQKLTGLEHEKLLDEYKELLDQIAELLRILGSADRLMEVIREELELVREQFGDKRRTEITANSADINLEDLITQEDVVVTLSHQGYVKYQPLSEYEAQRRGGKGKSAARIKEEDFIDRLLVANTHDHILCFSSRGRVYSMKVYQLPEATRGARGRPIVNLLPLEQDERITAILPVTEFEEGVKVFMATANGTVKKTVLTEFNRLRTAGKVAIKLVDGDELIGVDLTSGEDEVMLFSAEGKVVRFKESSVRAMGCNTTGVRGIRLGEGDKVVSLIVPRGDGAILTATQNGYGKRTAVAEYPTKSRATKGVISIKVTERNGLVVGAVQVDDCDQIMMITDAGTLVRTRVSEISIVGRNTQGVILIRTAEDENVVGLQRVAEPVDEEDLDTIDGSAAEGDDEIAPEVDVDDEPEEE

SMILES | double-stranded DNA breaks with gyrase relative to topoisomerase IV (E. coli gyrase) | single-stranded compared with double-stranded DNA breaks with gyrase (E. coli gyrase) | total DNA breaks with gyrase relative to topoisomerase IV (E. coli gyrase) | double-stranded DNA breaks with gyrase relative to topoisomerase IV (B. anthracis gyrase) | single-stranded compared with double-stranded DNA breaks with gyrase (B. anthracis gyrase) | total DNA breaks with gyrase relative to topoisomerase IV (B. anthracis gyrase) | DNA cleavage mediated by M. tuberculosis gyrase compared with zoliflodacin (M. tuberculosis gyrase)
C[C@@H]1CN2c3c(cc4c(N5C(=O)OC[C@@H]5C)noc4c3F)CC3(C(=O)NC(=O)NC3=O)[C@H]2[C@H](C)O1 [zoliflodacin, Zoliflodacin] | ~2 times | more gyrase-mediated single-stranded than double-stranded DNA breaks | 2.5 to 3 times | ~2 times | more gyrase-mediated single-stranded than double-stranded DNA breaks | 2.5 to 3 times | –
CC1CN2c3c(cc4c(OCC5CCC(=O)N5)noc4c3F)CC3(C(=O)NC(=O)NC3=O)C2C(C)O1 (centres unmarked) [H3D-005722] | – | higher levels of single-stranded than double-stranded DNA breaks | higher levels of total DNA breaks mediated by gyrase over topoisomerase IV | – | higher levels of single-stranded than double-stranded DNA breaks | higher levels of total DNA breaks mediated by gyrase over topoisomerase IV | higher levels
